# Test results reported in ChEMBL document CHEMBL2203285, “Radiofluorinated histamine H₃ receptor antagonist as a potential probe for in vivo PET imaging: radiosynthesis and pharmacological evaluation” (Bioorg Med Chem, 2012).
# What was measured:
# [1] = Permeability from apical to basolateral side in MDCK2 cells by gamma counting; format: ADME, cell-based, Canis lupus familiaris; settings: dog, mdck-ii
# Hippocampus [2] = experiment: Drug uptake in Sprague-Dawley rat hippocampus at 0.01 nM after 45 mins by autoradiography; format: ADME, tissue-based; settings: 10 pM
# Intestine = experiment: Drug uptake in Sprague-Dawley rat intestine at 29.1 MBq after 70 to 100 mins post injection by PET imaging; format: ADME, tissue-based; settings: in vivo
# Adrenal gland = experiment: Drug uptake in Sprague-Dawley rat adrenal gland at 29.1 MBq after 70 to 100 mins post injection by PET imaging; format: ADME, tissue-based; settings: in vivo
# Cerebral cortex [3] = experiment: Drug uptake in Sprague-Dawley rat Cerebral cortex at 29.1 MBq after 70 to 100 mins post injection by PET imaging; format: ADME, tissue-based; settings: in vivo
# [4] = Drug uptake in Sprague-Dawley rat thyroid gland at 29.1 MBq after 70 to 100 mins post injection by PET imaging; format: ADME, tissue-based; settings: in vivo
# Striatum [5] = experiment: Drug uptake in Sprague-Dawley rat striatum at 0.01 nM in presence of 100 uM histamine after 45 mins by autoradiography; format: ADME, tissue-based; settings: 10 pM
# MDR1 [6] = experiment: Apparent permeability from basolateral to apical side in MDCK2 cells expressing MDR1 by gamma counting; format: ADME, cell-based, Canis lupus familiaris, MDCK-II; settings: dog, MDCK-MDR1
# Liver = experiment: Drug uptake in Sprague-Dawley rat liver at 29.1 MBq after 70 to 100 mins post injection by PET imaging; format: ADME, tissue-based; settings: in vivo
# Striatum [7] = experiment: Drug uptake in Sprague-Dawley rat Striatum at 29.1 MBq after 70 to 100 mins post injection by PET imaging; format: ADME, tissue-based; settings: in vivo
# Cerebral cortex [8] = experiment: Drug uptake in Sprague-Dawley rat cerebral cortex at 0.01 nM in presence of 100 uM histamine after 45 mins by autoradiography; format: ADME, tissue-based; settings: 10 pM
# [9] = Drug uptake in Sprague-Dawley rat intraorbital lacrimal gland at 29.1 MBq after 70 to 100 mins post injection by PET imaging; format: ADME, tissue-based; settings: in vivo
# [10] = Distribution coefficient, log D of the compound in octanol and PBS buffer at pH 7.4 by shake-flask method; format: physicochemical
# [11] = Permeability from basolateral to apical side in MDCK2 cells by gamma counting; format: ADME, cell-based, Canis lupus familiaris; settings: dog, mdck-ii
# Cerebral cortex [12] = experiment: Drug uptake in Sprague-Dawley rat cerebral cortex at 0.01 nM after 45 mins by autoradiography; format: ADME, tissue-based; settings: 10 pM
# [13] = Drug level in Sprague-Dawley urine rat assessed as parent compound level at 250 MBq, iv measured 30 mins post dose; format: ADME, organism-based; settings: in vivo, 0.5 h
# Histamine H3 receptor [14] = target: T1, Histamine H3 receptor (Rattus norvegicus, UniProt Q9QYN8); experiment: Binding affinity to rat histamine H3 receptor low affinity site after 1 hr by Schard plot analysis
# T1 sequence (Q9QYN8 whole entry): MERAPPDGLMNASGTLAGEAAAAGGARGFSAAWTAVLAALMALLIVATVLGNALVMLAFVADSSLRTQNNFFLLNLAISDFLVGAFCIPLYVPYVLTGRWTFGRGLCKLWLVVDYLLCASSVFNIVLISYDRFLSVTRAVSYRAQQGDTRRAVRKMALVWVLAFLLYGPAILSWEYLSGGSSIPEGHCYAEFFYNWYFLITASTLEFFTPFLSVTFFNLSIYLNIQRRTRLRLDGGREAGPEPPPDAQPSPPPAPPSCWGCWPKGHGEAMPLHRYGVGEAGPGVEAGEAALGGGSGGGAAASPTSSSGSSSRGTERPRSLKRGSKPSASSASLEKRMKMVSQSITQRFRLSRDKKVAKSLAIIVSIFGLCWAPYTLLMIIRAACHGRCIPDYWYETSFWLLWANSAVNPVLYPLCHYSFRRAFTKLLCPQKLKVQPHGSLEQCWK
# Plasma = experiment: Metabolic stability human plasma at 60 MBq after 60 mins by UPLC analysis; format: ADME, cell-free; settings: 1 h
# Kidney = experiment: Drug uptake in Sprague-Dawley rat kidney pelvis at 29.1 MBq after 70 to 100 mins post injection by PET imaging; format: ADME, tissue-based; settings: in vivo
# Cerebellum = experiment: Drug uptake in Sprague-Dawley rat cerebellum at 0.01 nM after 45 mins by autoradiography; format: ADME, tissue-based; settings: 10 pM
# Thalamus [15] = experiment: Drug uptake in Sprague-Dawley rat thalamus at 0.01 nM after 45 mins by autoradiography; format: ADME, tissue-based; settings: 10 pM
# Striatum [16] = experiment: Drug uptake in Sprague-Dawley rat striatum at 0.01 nM after 45 mins by autoradiography; format: ADME, tissue-based; settings: 10 pM
# Hippocampus [17] = experiment: Drug uptake in Sprague-Dawley rat hippocampus at 0.01 nM in presence of 100 uM histamine after 45 mins by autoradiography; format: ADME, tissue-based; settings: 10 pM
# [18] = Drug uptake in Sprague-Dawley rat skeleton joint at 29.1 MBq after 70 to 100 mins post injection by PET imaging; format: ADME, tissue-based; settings: in vivo
# Rattus norvegicus [19] = experiment: Drug uptake in Sprague-Dawley rat at 29.1 MBq after 70 to 100 mins post injection coadministered with 2 mg/kg ciproxifan by PET imaging; format: ADME, organism-based; parameters: dose 2 mg/kg; settings: in vivo
# [20] = Drug uptake in Sprague-Dawley rat urinary bladder at 29.1 MBq after 70 to 100 mins post injection by PET imaging; format: ADME, tissue-based; settings: in vivo
# Liver microsomes [21] = experiment: Metabolic stability rat liver microsome after 120 mins by UPLC analysis; format: ADME; settings: 2 h
# [22] = Metabolic stability human plasma assessed as compound degradation at 60 MBq after 120 mins by UPLC analysis; format: ADME, cell-free; settings: read-out: Drug degradation
# [23] = Drug uptake in Sprague-Dawley rat salivary gland at 29.1 MBq after 70 to 100 mins post injection by PET imaging; format: ADME, tissue-based; settings: in vivo
# Rattus norvegicus [24] = experiment: Stability in Sprague-Dawley rat assessed as parent compound level at 250 MBq, iv measured 5 to 30 mins post dose; format: ADME, organism-based; settings: in vivo
# Histamine H3 receptor [25] = target: T1, Histamine H3 receptor; experiment: Binding affinity to rat brain histamine H3 receptor after 1 hr by gamma counting
# [26] = Drug uptake in Sprague-Dawley rat harderin gland at 29.1 MBq after 70 to 100 mins post injection by PET imaging; format: ADME, tissue-based; settings: in vivo
# Rattus norvegicus [27] = experiment: Drug uptake in Sprague-Dawley rat at 29.1 MBq after 70 to 100 mins post injection coadministered with 1 mg/kg ST900 by PET imaging; format: ADME, organism-based; parameters: dose 1 mg/kg; settings: in vivo
# Liver microsomes [28] = experiment: Metabolic stability human liver microsome after 120 mins by UPLC analysis; format: ADME; settings: 2 h
# MDR1 [29] = experiment: Efflux ratio of permeability from basolateral to apical side over apical to basolateral side in MDCK2 cells expressing MDR1 by gamma counting; format: ADME, cell-based, Canis lupus familiaris, MDCK-II; settings: dog, MDCK-MDR1
# MDR1 [30] = experiment: Apparent permeability from apical to basolateral side in MDCK2 cells expressing MDR1 by gamma counting; format: ADME, cell-based, Canis lupus familiaris, MDCK-II; settings: dog, MDCK-MDR1
# [31] = Drug uptake in Sprague-Dawley rat Spinal colum at 29.1 MBq after 70 to 100 mins post injection by PET imaging; format: ADME; settings: in vivo
# [32] = Metabolic stability human plasma assessed as parent compound level at 60 MBq after 90 mins by UPLC analysis; format: ADME, cell-free; settings: read-out: Stability
# Thalamus [33] = experiment: Drug uptake in Sprague-Dawley rat thalamus at 0.01 nM in presence of 100 uM histamine after 45 mins by autoradiography; format: ADME, tissue-based; settings: 10 pM
# Histamine H3 receptor [34] = target: T1, Histamine H3 receptor; experiment: Binding affinity to rat cerebral cortex histamine H3 receptor; format: tissue-based
# Liver microsomes [35] = experiment: Metabolic stability rat liver microsome after 90 mins by UPLC analysis; format: ADME; settings: 1.5 h
# [36] = Metabolic stability human liver microsomes assessed as compound oxidation after 90 mins by UPLC analysis; format: ADME, Microsome; settings: read-out: Drug metabolism
compound,measurement,setting,value
[18F]C1CCN(Cc2ccc(OCCCN3CCCCC3)cc2)CC1,permeability,[1],permeable
same,Drug uptake,Hippocampus [2],Active
same,Drug uptake,Intestine,Active
same,Drug uptake,Adrenal gland,Active
same,Drug uptake,Cerebral cortex [3],Not Active
same,Drug uptake,[4],Active
same,Drug uptake,Striatum [5],Not Active
same,Papp B→A,MDR1 [6],0.12 ×10⁻⁶ cm/s
same,Drug uptake,Liver,Active
same,Drug uptake,Striatum [7],Not Active
same,Drug uptake,Cerebral cortex [8],Not Active
same,Drug uptake,[9],Active
same,logD,[10],0.35
same,permeability,[11],permeable
same,Drug uptake,Cerebral cortex [12],Active
same,Drug uptake,[13],90%
same,Kd,Histamine H3 receptor [14],> 3000 nM
same,Stability,Plasma,Stable
same,Drug uptake,Kidney,Active
same,Drug uptake,Cerebellum,Not Active
same,Drug uptake,Thalamus [15],Active
same,Drug uptake,Striatum [16],Active
same,Drug uptake,Hippocampus [17],Not Active
same,Drug uptake,[18],Active
same,Drug uptake,Rattus norvegicus [19],Active
same,Drug uptake,[20],Active
same,Stability,Liver microsomes [21],Stable
same,"metabolised at 2 h, 60 MBq",[22],3%
same,Drug uptake,[23],Active
same,Stability,Rattus norvegicus [24],Stable
same,Kd,Histamine H3 receptor [25],0.34 nM
same,Drug uptake,[26],Active
same,Drug uptake,Rattus norvegicus [27],Active
same,Stability,Liver microsomes [28],Stable
same,efflux ratio,MDR1 [29],0.8
same,Papp A→B,MDR1 [30],0.16 ×10⁻⁶ cm/s
same,Drug uptake,[31],Active
same,"remaining at 1.5 h, 60 MBq",[32],98%
same,Drug uptake,Thalamus [33],Not Active
O=C(O)c1cn(C2CC2)c2cc(N3CCNCC3)c(F)cc2c1=O [CIPROFLOXACIN],Ki,Histamine H3 receptor [34],0.654 nM
C[C@]12CC[C@H]3[C@@H](CCC4=CC(=O)CC[C@@]43C)[C@@H]1CC[C@@H]2O [TESTOSTERONE],Stability,Liver microsomes [35],Unstable
same,metabolised at 1.5 h,[36],60%
CC[C@]1(O)C[C@@H]2CN(CCc3c([nH]c4ccccc34)[C@@](C(=O)OC)(c3cc4c(cc3OC)N(C)[C@H]3[C@@](O)(C(=O)OC)[C@H](OC(C)=O)[C@]5(CC)C=CCN6CC[C@]43[C@@H]65)C2)C1 [VINBLASTINE],Papp B→A,MDR1 [6],3.24 ×10⁻⁶ cm/s
same,efflux ratio,MDR1 [29],15
same,Papp A→B,MDR1 [30],0.22 ×10⁻⁶ cm/s
